Laboratory results from patent US12061202B2, “Compositions and methods for bioluminescent detection using multifunctional probes” (Promega Corporation, priority 2019, dated 2024).

Experiments:
various cell types = test: Labeling of various cell types with bifunctional probe, NanoBiT detection (FIG. 2B); assay type: cell-based
Text: As shown in FIGS. 2A-2B, a variety of cells were labeled with the bifunctional probes of the present disclosure. FIG. 2A is a representative schematic diagram of a method used to label the various target cells identified in FIG. 2B. […] Robust luminescence was detected from the labeled proteins released after cell death, which were quantified using the NanoBiT® system, while little luminescence was detected in the media and live cells.
In accordance with these experiments, the various cell types tested were collected by centrifugation for 5 mins at 300 g followed by aspiration of the media and resuspension in PBS. The bifunctional probe was then added to the media and allowed to incubate for 30 mins at 37° C. Pre-warmed (37° C.) complete media containing 10% serum was then added to the cells and incubated for 5 mins at 37° C. The labeled cells were then collected by centrifugation for 5 mins at 300 g and excess media was removed, and the labeled cells were then resuspended in the desired media. NanoBiT® detection reagents were then added to the labeled cells and allowed to incubate for 30 mins at 37° C. prior to reading luminescence (RLUs).

SKBR3 = test: Release of labeled proteins from dead cells, NanoBiT bioluminescence, SKBR3; assay type: cell-based; details: final labeling probe concentration 10 μM
Method: Next, the bifunctional labeling probe was thawed at room temperature and mixed. The probe was generally contained in DMSO. The bifunctional probe was added to the cells at a final concentration between about 0.5-10 μM. The cells were then mixed by gently pipetting and incubated for 30 minutes at 37° C. To inactivate unreactive free labeling probe, a 10× volume of pre-warmed (37° C.) cell culture medium containing 10% FBS was added, and the cells incubated for additional 5 minutes. The labeled cells were then spun down, and the labeling media removed. The cells were resuspended in fresh cell culture media at the concentration required for the experiment.
In some embodiments, one or more components of the NanoBiT® system can be used for measuring cell death of pre-labeled cell population in mixed cell cultures. […]
Labeled cells (1,250-10,000 cells/well) were plated with experimental treatment conditions (e.g., drug, effector cells, etc.) in 50 μl of appropriate medium. Wells without cells were included as negative controls to determine background luminescence in the media. […]
About 50 μl of prepared Detection Reagent was added into all assay wells and negative (media) control wells. […] About 25 μL of prepared substrate was added to the assay wells, mixed, and luminescence was read.

For O=C(NCCOCCOCCCCCCCl)c1ccc(C(=O)ON2C(=O)CCC2=O)cc1 [Labeling Probe, 2,5-dioxopyrrolidin-1-yl 4-((2-(2-((6-chlorohexyl)oxy)ethoxy)ethyl)carbamoyl)benzoate], which “uptake of probe by cells” value (various cell types) is on record?
Its value is “successfully taken up by every cell tested”.

What about the “Dead/Live at 5,000 cells/well” value (SKBR3; at 4 h) of the same molecule?
Its value is 10.1.

What about the “Dead/Live at 5,000 cells/well” value (SKBR3; at 24 h) of the same molecule?
The value was 10.9.
